Results taken from ChEMBL document CHEMBL4350972, “Design, synthesis and pharmacological evaluation of a novel mTOR-targeted anti-EV71 agent” (Eur J Med Chem, 2019).
≈ marks a conversion by molar mass, not a printed value. Calls of active or inactive are those of the source. No cut-off for these calls is given here.

Assays:
[1] = tested on: Enterovirus A71; test: Antiviral activity against Enterovirus A71 infected in human RD cells assessed as reduction in virus-induced cell death incubated for 4 days by CellTiter-Glo luminescence assay; format: functional, organism-based; conditions: Enterovirus A, 96 h
[2] = Cytotoxicity against human RD cells incubated for 4 days by CellTiter-Glo luminescence assay; format: cell-based
[3] = biological target: mTORC1 (Homo sapiens) (UniProt P42345+Q8N122+Q9BVC4); test: Inhibition of mTORC1 in human RD cells assessed as reduction in P70S6K1 phosphorylation at Thr 389 site at 20 uM incubated for 2 hrs in presence of insulin by Western blot analysis; format: cell-based
[4] = biological target: mTORC2 (Homo sapiens) (UniProt P42345+Q6R327+Q9BVC4+Q9BPZ7); test: Inhibition of mTORC2 in human RD cells assessed as reduction in Akt phosphorylation at Ser473 site at 20 uM incubated for 2 hrs in presence of insulin by Western blot analysis; format: cell-based
[5] = Ratio of aqueous solubility for Torin2 to aqueous solubility for test compound; format: physicochemical; conditions: buffer
[6] = Aqueous solubility of the compound; format: physicochemical

Compound	IC50 [1]	CC50 at 96 h [2]	inhibition [3]	inhibition [4]	Ratio [5]	solubility [6]
Nc1cccc(Nc2ccc3ncc4ccc(=O)n(-c5cccc(C(F)(F)F)c5)c4c3c2)n1	2470 nM	5190 nM	Active	Active		
CC(=O)/C=C/c1cnc2ccc(-c3cccc(N)c3)cc2c1Nc1cccc(C(F)(F)F)c1		> 200000 nM				
O=c1ccc2cnc3ccc(-c4cccnc4F)cc3c2n1-c1cccc(C(F)(F)F)c1	59 nM	1230 nM	Active	Active	5	
O=C1Cc2cc(-c3ccc4ncc5ccc(=O)n(-c6cccc(C(F)(F)F)c6)c5c4c3)ccc2N1	7400 nM	10300 nM	Active			
CC(=O)/C=C/c1cnc2ccc(-c3cnc4ccccc4c3)cc2c1Nc1cccc(C(F)(F)F)c1		680 nM				
N#C/C=C/c1ccc2ncc3oc(=O)n(-c4cccc(C(F)(F)F)c4)c3c2c1		> 200000 nM				
CCCC(=O)Nc1ccc(-c2ccc3ncc4ccc(=O)n(-c5cccc(C(F)(F)F)c5)c4c3c2)cn1	170 nM	750 nM	Active	Active		
CC(C)(C)OC(=O)Nc1ccc(-c2ccc3ncc4ccc(=O)n(-c5cccc(C(F)(F)F)c5)c4c3c2)cn1	2470 nM	690 nM	Active	Active		
Nc1ccc(-c2ccc3ncc4ccc(=O)n(-c5cccc(C(F)(F)F)c5)c4c3c2)cn1	10 nM					1.29 µg/mL (≈ 2.98 µM)
O=C(Cc1ccccc1)Nc1ccc(-c2ccc3ncc4ccc(=O)n(-c5cccc(C(F)(F)F)c5)c4c3c2)cn1	560 nM	740 nM	Active	Active		
O=c1ccc2cnc3ccc(-c4ccc(F)nc4)cc3c2n1-c1cccc(C(F)(F)F)c1	70 nM	230 nM	Active	Active		
NC(=O)NC/C=C/c1ccc2ncc3oc(=O)n(-c4cccc(C(F)(F)F)c4)c3c2c1	48900 nM	66600 nM	inactive	inactive		
CC(=O)/C=C/c1cnc2ccc(-c3ccc(N)cc3)cc2c1Nc1cccc(C(F)(F)F)c1	5140 nM	5140 nM	inactive	inactive		
O=C(Nc1ccc(-c2ccc3ncc4ccc(=O)n(-c5cccc(C(F)(F)F)c5)c4c3c2)cn1)OCc1ccccc1	23700 nM	1000 nM	Active	Active		
CN1CCN(c2ccc(-c3ccc4ncc5ccc(=O)n(-c6cccc(C(F)(F)F)c6)c5c4c3)cn2)CC1	90 nM	180 nM	Active		15	
CC(C)C(=O)Nc1ccc(-c2ccc3ncc4ccc(=O)n(-c5cccc(C(F)(F)F)c5)c4c3c2)cn1	820 nM	460 nM	Active	Active		

Compound	IC50 [1]	CC50 at 96 h [2]	inhibition [3]	inhibition [4]	Ratio [5]	solubility [6]
COc1cncc(-c2ccc3ncc4oc(=O)n(-c5cccc(C(F)(F)F)c5)c4c3c2)c1		68500 nM				
O=C(Nc1ccc(-c2ccc3ncc4ccc(=O)n(-c5cccc(C(F)(F)F)c5)c4c3c2)cn1)Oc1ccccc1	90 nM	200 nM	Active	Active		
CC(=O)/C=C/c1cnc2ccc(-c3ccc(F)nc3)cc2c1Nc1cccc(C(F)(F)F)c1		2230 nM				
COC(=O)/C=C/c1ccc2ncc3oc(=O)n(-c4cccc(C(F)(F)F)c4)c3c2c1		72000 nM				
CO[C@H]1C[C@@H]2CC[C@@H](C)[C@@](O)(O2)C(=O)C(=O)N2CCCC[C@H]2C(=O)O[C@H]([C@H](C)C[C@@H]2CC[C@@H](O)[C@H](OC)C2)CC(=O)[C@H](C)/C=C(\C)[C@@H](O)[C@@H](OC)C(=O)[C@H](C)C[C@H](C)/C=C/C=C/C=C/1C			Active			
COc1cncc(-c2ccc3ncc(/C=C/C(C)=O)c(Nc4cccc(C(F)(F)F)c4)c3c2)c1		> 200000 nM				
O=c1ccc2cnc3ccc(-c4ccc(N5CCCC5)nc4)cc3c2n1-c1cccc(C(F)(F)F)c1	2470 nM	1790 nM	Active	Active		
COc1ccc(-c2ccc3ncc4ccc(=O)n(-c5cccc(C(F)(F)F)c5)c4c3c2)cn1	40 nM	130 nM	Active	Active		
COc1ncccc1-c1ccc2ncc3ccc(=O)n(-c4cccc(C(F)(F)F)c4)c3c2c1		> 200000 nM				
CN(C)c1ccc(-c2ccc3ncc4ccc(=O)n(-c5cccc(C(F)(F)F)c5)c4c3c2)cn1	270 nM	170 nM	Active	Active		
O=c1oc2cnc3ccc(-c4cnc5ccccc5c4)cc3c2n1-c1cccc(C(F)(F)F)c1		68900 nM				
Nc1cccc(Nc2ccc3ncc4ccc(=O)n(-c5cccc(C(F)(F)F)c5)c4c3c2)c1	890 nM	7580 nM	Active	Active		
CCCCC(=O)Nc1ccc(-c2ccc3ncc4ccc(=O)n(-c5cccc(C(F)(F)F)c5)c4c3c2)cn1	200 nM	700 nM	Active	Active		
Cc1ccc(-c2ccc3ncc4oc(=O)n(-c5cccc(C(F)(F)F)c5)c4c3c2)cn1	4780 nM	16900 nM	inactive	inactive		
O=c1ccc2cnc3ccc(-c4ccc(N5CCOCC5)nc4)cc3c2n1-c1cccc(C(F)(F)F)c1	2630 nM	2910 nM	Active	Active		
CCC(=O)Nc1ccc(-c2ccc3ncc4ccc(=O)n(-c5cccc(C(F)(F)F)c5)c4c3c2)cn1	27 nM	40 nM	Active	Active		
